Experimental data reported in patent US8877718B2, “Antiinfective and antitumoral compounds isolated from tropical lianas” (Julius-Maximilians-Universität Würzburg, priority 2008, dated 2014).

Assays:
[1] = test system: Leishmania donovani (MHOM-ET-67/L82 strain) amastigote forms; experiment: Antiinfective effect against axenic amastigotes of Leishmania donovani (Alamar Blue fluorescence); assay type: cell-based; conditions: for inhibition at 0.8 µg/mL: c = 0.8 μg/ml, read-out: Inhibition of cell growth (%) at c = 0.8 μg/ml; for inhibition at 4.8 µg/mL: c = 4.8 μg/ml, read-out: Inhibition of cell growth (%) at c = 4.8 μg/ml; for activity against Leishmania donovani (in words): summary of Table 6
Description: Amastigote forms of Leishmania donovani (MHOM-ET-67/L82 strain) were grown in axenic culture at 37° C. and pH 5.4 in SM medium (I. Cunningham, J. Protozool. 1977, 24, 325-329) supplemented with 10% fetal bovine serum. For the assay, amastigote forms were seeded into a microtiter plate containing two concentrations of each substance to be tested. After 72 h the dye Alamar Blue (Resazurin) was added to each culture, and the plate was incubated for two more hours. Fluorescence at 536/588 nm was measured using a microtiter plate fluorometer, and the fluorescence signal of each culture treated with a substance was compared to the fluorescence signal of untreated control cultures. The antileishmanial drug miltefosine served as a positive control.

[2] = test system: RPMI8226 (multiple myeloma) cell line; experiment: Cell viability, annexin V-FITC/PI flow cytometry, RPMI8226; assay type: cell-based; conditions: RPMI-8226; human tumor cell line RPMI8226 (multiple myeloma); 72 h incubation
Excerpt: (§1) Both cell lines of aggressive B cell lymphoma (DOHH-2, SU-DHL-4) and the multiple myeloma cell line RPMI8226 were obtained from the German Collection of Microorganisms and Cell Cultures (DSMZ) (ACC 47, ACC 495, and ACC 402, Braunschweig, Germany). The cultivation of the multiple myeloma cell line INA-6 had been previously described (R. Burger, A. Guenther, F. Bakker, M. Schmalzing, S. Bernand, W. Baum, B. Duerr, G. M. Hocke, H. Steininger, E. Gebhart, M. Gramatzki, Hematol. J. 2001, 2, 42-53). Normal mononuclear blood cells from the peripheral blood of two healthy donors were isolated by Ficoll-Hypaque density gradient centrifugation. To assess the percentage of apoptotic and viable cell fractions, a human annexin V-FITC/PI staining kit (Bender MedSystems, Vienna, Austria) was used. Cells (inoculation: 50000 cells mL^−1; incubation: 72 h) were washed in PBS, incubated for 10 min in 100 ml binding buffer (10 mM HEPES/NaOH, pH 7.4, 140 mM NaCl, 2.5 mM CaCl2) containing 2.5 ml annexin V-FITC mix and 1 mg/ml propidium iodide (PI), subsequently diluted with 300 ml binding buffer and analyzed by flow cytometry (FACSCalibur/CELLQuest; Becton Dickinson, Heidelberg, Germany). Early apoptosis is characterized by a positive annexin V-FITC staining. Cells in a late apoptotic stage lose their membrane integrity and additionally incorporate PI. […]

[3] = test system: INA-6 (multiple myeloma) cell line; experiment: Cell viability, annexin V-FITC/PI flow cytometry, INA-6; assay type: cell-based; conditions: human tumor cell line INA-6 (multiple myeloma); 72 h incubation
Excerpt: as §1

[4] = test system: DOHH-2 (aggressive B cell lymphoma) cell line; experiment: Cell viability, annexin V-FITC/PI flow cytometry, DOHH-2; assay type: cell-based; conditions: human tumor cell line DOHH-1-2 (aggressive B cell lymphoma), 72 h incubation
Excerpt: as §1

[5] = test system: normal peripheral mononuclear blood cells; experiment: Cell viability, annexin V-FITC/PI flow cytometry, normal blood cells; assay type: cell-based, human; conditions: FIG. 9; for toxicity against normal peripheral mononuclear blood cells: cells of two healthy donors; for 50% response (EC50) in primary mononuclear blood cells: within the preferred therapeutic concentration range
Excerpt: Both cell lines of aggressive B cell lymphoma (DOHH-2, SU-DHL-4) and the multiple myeloma cell line RPMI8226 were obtained from the German Collection of Microorganisms and Cell Cultures (DSMZ) (ACC 47, ACC 495, and ACC 402, Braunschweig, Germany). The cultivation of the multiple myeloma cell line INA-6 had been previously described (R. Burger, A. Guenther, F. Bakker, M. Schmalzing, S. Bernand, W. Baum, B. Duerr, G. M. Hocke, H. Steininger, E. Gebhart, M. Gramatzki, Hematol. J. 2001, 2, 42-53). Normal mononuclear blood cells from the peripheral blood of two healthy donors were isolated by Ficoll-Hypaque density gradient centrifugation. To assess the percentage of apoptotic and viable cell fractions, a human annexin V-FITC/PI staining kit (Bender MedSystems, Vienna, Austria) was used. Cells (inoculation: 50000 cells mL^−1; incubation: 72 h) were washed in PBS, incubated for 10 min in 100 ml binding buffer (10 mM HEPES/NaOH, pH 7.4, 140 mM NaCl, 2.5 mM CaCl2) containing 2.5 ml annexin V-FITC mix and 1 mg/ml propidium iodide (PI), subsequently diluted with 300 ml binding buffer and analyzed by flow cytometry (FACSCalibur/CELLQuest; Becton Dickinson, Heidelberg, Germany). Early apoptosis is characterized by a positive annexin V-FITC staining. Cells in a late apoptotic stage lose their membrane integrity and additionally incorporate PI. Viable cells are negative for both, annexin V-FITC and PI. The optical density of the controls was equaled to 100%.

[6] = test system: SU-DHL-4 (aggressive B cell lymphoma) cell line; experiment: Cell viability, annexin V-FITC/PI flow cytometry, SU-DHL-4; assay type: cell-based; conditions: human tumor cell line SU-DH-4 L (aggressive B cell lymphoma), 72 h incubation
Excerpt: as §1

[7] = Leishmania donovani, 72 h, axenic amastigotes

Row | melting point [°C] | EC50 [2] [µM] | EC50 [3] [µM] | EC50 [4] [µM] | EC50 [6] [µM] | SMILES | inhibition at 0.8 µg/mL [1, 7] [%] | inhibition at 4.8 µg/mL [1, 7] [%] | toxicity against normal peripheral mononuclear blood cells [5] | 50% response (EC50) in primary mononuclear blood cells [5] | activity against Leishmania donovani (in words) [1] | inhibition at 0.22 µg/mL ([1]; Leishmania donovani, c = 0.22 μg/ml (positive control), 72 h, axenic amastigotes, read-out: Inhibition of cell growth (%)) [%]
1 | 218 | – | – | – | – | COc1ccc2c(c1OC)C(=O)C(O)=C(C)C2=O [Ancistroquinone C (1f), 3-Hydroxy-5,6-dimethoxy-2-methyl-1,4-naphthoquinone] | – | – | – | – | – | –
2 | – | – | – | – | – | COc1cc(O)c2c(c1OC)C(=O)C(O)=C(C)C2=O [Ancistroquinone D (1c), 3,8-dihydroxy-5,6-dimethoxy-2-methyl-1,4-naphthoquinone] | 11.4 | 31.7 | – | – | – | –
3 | – | – | – | – | – | CC1=C(O)C(=O)c2c(O)c3c(c(O)c2C1=O)OCO3 [Ancistroquinone E (1d), 3,5,8-trihydroxy-2-methyl-6,7-methylenedioxy-1,4-naphthoquinone] | 19.6 | 30.5 | – | – | – | –
4 | – | – | – | – | – | COc1c2c(cc3c1C(=O)C(O)=C(C)C3=O)OCO2 [Ancistroquinone F (1e), 3-hydroxy-5-methoxy-2-methyl-6,7-methylenedioxy-1,4-naphthoquinone] | 0.3 | 28.6 | – | – | – | –
5 | 189 | 58 | 29 | 37 | 32 | CC1=C(O)C(=O)c2c(ccc(O[C@@H]3OC(CO)[C@@H](O)[C@H](O)[C@H]3O)c2O)C1=O (stereo partly drawn) [Dioncoquinone A (1a), 3,5,6-trihydroxy-2-methyl-1,4-naphthoquinone-6-O-β-glucoside] | 49.6 | 80.3 | non-toxic | neither for Dioncoquinone A (1a) or for Dioncoquinone B (1b) a 50% response was achieved | excellent | –
6 | 216 to 217 | 18 | 11 | 9.4 | 7.6 | CC1=C(O)C(=O)c2c(ccc(O)c2O)C1=O [Dioncoquinone B (1b), 3,5,6-trihydroxy-2-methyl-1,4-naphthoquinone] | 79.2 | 87.6 | non-toxic | neither for Dioncoquinone A (1a) or for Dioncoquinone B (1b) a 50% response was achieved | excellent | –
7 | – | – | – | – | – | CCCCCCCCCCCCCCCCOP(=O)([O-])OCC[N+](C)(C)C [Miltefosine, miltefosine, reference compound] | – | – | – | – | – | 53
